Here are results for 9 compounds from patent US20250340886A1, “INTRACELLULAR KINASE ASSOCIATED WITH RESISTANCE AGAINST ANTI-TUMOUR IMMUNE RESPONSES, AND USES THEREOF” (iOmx Therapeutics AG, priority 2017, published 2025).

One series has as its system M579-A2-luc tumour cells. The series is described as follows: luciferase-based tumour cell viability assay, M579-A2-luc cells with inhibitor and TNF. The conditions noted are these: for tumour cell survival (RLU): in combination with 10 ng/mL TNF, about 20 to 100 nM, FIG. 18.
A further series deals with SIK2 (Homo sapiens (Human), UniProt Q9H0K1). Put plainly: radiometric protein kinase assay (33PanQinase Activity Assay, ProQinase Free Choice Kinase Assay). The series is classed as biochemical. As to conditions: ATP 1.0 uM, read-out: SIK2 IC50 rank.
Chain of SIK2 (Q9H0K1 whole entry): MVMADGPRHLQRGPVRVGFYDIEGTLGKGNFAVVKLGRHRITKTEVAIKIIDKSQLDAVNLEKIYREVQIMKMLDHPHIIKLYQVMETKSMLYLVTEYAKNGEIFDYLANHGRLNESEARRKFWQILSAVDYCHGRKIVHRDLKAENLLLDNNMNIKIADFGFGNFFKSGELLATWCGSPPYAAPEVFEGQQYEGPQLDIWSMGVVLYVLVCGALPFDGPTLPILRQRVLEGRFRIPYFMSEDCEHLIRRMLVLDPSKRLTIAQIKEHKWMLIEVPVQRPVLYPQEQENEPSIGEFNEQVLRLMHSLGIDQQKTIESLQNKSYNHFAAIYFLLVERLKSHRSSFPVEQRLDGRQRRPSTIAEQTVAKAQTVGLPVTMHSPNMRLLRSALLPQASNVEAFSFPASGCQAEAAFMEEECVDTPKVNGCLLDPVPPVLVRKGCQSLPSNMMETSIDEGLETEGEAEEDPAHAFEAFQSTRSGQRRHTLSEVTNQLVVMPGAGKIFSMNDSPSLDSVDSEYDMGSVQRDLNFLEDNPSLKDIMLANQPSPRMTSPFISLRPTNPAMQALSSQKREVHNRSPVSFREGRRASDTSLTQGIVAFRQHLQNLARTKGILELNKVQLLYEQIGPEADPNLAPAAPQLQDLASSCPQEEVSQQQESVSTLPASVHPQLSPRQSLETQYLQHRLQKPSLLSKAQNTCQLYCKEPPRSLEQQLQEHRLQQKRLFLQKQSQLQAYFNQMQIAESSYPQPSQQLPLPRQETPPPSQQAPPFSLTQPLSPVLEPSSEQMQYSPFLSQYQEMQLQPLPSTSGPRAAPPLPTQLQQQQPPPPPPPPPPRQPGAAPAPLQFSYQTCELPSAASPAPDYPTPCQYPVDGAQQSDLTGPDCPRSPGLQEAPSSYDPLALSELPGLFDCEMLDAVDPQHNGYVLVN
Another series concerns the target SIK3 (Homo sapiens (Human), UniProt Q9Y2K2). The description is as above. The series is classed as biochemical. As to conditions: read-out: SIK3 IC50 rank.
For another series, the target named is SIK1 (Homo sapiens (Human), UniProt P57059). The series is described as above. The series is classed as biochemical. The conditions noted are these: ATP 3.0 uM, read-out: SIK1 IC50 rank.
Chain of SIK1 (P57059 whole entry): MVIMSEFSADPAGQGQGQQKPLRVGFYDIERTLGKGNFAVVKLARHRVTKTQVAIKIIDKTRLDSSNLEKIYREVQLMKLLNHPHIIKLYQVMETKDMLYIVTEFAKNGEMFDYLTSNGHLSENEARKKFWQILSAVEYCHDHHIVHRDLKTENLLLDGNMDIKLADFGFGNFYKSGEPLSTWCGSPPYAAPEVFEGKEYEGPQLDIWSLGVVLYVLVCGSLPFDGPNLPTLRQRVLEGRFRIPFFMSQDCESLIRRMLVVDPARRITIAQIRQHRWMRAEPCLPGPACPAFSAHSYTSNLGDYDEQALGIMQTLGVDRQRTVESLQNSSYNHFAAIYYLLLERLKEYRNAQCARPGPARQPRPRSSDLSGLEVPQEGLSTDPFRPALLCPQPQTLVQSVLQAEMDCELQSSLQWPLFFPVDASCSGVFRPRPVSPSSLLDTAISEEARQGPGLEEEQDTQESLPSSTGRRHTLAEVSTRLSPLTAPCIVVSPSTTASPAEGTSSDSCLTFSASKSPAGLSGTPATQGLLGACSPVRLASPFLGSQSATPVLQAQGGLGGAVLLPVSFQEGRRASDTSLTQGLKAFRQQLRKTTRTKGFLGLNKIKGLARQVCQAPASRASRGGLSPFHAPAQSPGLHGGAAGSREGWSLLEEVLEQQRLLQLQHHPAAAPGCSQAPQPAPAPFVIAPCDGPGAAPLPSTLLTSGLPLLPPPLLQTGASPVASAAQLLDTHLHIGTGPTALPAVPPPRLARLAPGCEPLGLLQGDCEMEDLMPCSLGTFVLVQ
A further series has as its target ABL1 wt (Homo sapiens (Human), UniProt P00519). The description is as above. It counts as biochemical. As to conditions: indicative IC50, Table 4; ATP 0.3 uM; read-out: ABL1 IC50 rank.
The next series deals with SRC (GST-HIS-tag) (Homo sapiens (Human), UniProt P12931). The series is described as above. It counts as biochemical. The conditions noted are these: indicative IC50, Table 4; ATP 0.3 uM; read-out: SRC IC50 rank.
Chain of SRC (GST-HIS-tag) (P12931 whole entry, looked up): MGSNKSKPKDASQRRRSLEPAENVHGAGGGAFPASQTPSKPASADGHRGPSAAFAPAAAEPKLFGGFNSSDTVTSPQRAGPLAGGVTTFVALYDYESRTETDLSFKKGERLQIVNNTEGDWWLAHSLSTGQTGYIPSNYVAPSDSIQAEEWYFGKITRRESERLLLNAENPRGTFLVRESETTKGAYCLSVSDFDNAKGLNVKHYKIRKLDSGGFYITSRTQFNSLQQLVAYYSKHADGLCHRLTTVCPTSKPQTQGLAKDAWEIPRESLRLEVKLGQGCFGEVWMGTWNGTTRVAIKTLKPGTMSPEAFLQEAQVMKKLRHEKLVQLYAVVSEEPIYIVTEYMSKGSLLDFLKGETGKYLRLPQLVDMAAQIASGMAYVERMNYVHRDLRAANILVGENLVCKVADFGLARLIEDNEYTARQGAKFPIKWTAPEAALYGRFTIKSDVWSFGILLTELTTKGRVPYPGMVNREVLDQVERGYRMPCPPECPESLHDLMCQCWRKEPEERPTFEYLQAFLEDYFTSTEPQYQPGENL
In series [1] the test system is PANC-1 tumour cells. Put plainly: Luc-CTL assay: PANC-1 cells co-cultured with TIL #1 in the presence of small molecule SIK inhibitor. As to conditions: FIGS. 7A and 7B.
In series [2] the test system is PANC-1 tumour cells.
Another series concerns PANC-1-luc cells. The series is described as follows: luciferase-based T cell-mediated killing assay of siRNA-transfected PANC-1-luc cells. Also noted: species or system human. The conditions noted are these: absence of T cells (viability setting). An excerpt:
FIG. 2: Luciferase-based cytotoxicity assay for the assessment of T cell-mediated killing of siRNA transfected PANC-1-luc cells.
The inventors describe herein their surprising finding that SIK3 is a gene involved in tumour cell resistance against a cell-mediated immune response. Such role of SIK3 was first identified by the inventors using a high-throughput screening approach—to identify novel genes involved in mechanisms of tumour resistance towards T cell attack—as adapted and expanded from the screening approach developed and described by Khandelwal et al, 2015 (EMBO Mol Med 7:450). Briefly, using a siRNA library, 2514 genes were individually knocked-down in HLA-A2.1+ luciferase-expressing PANC1 cells (PANC1-luc), a pancreatic adenocarcinoma (PDAC) tumour cell line. Each gene's siRNA-transfected PANC1-luc tumour cells were then co-cultured with magnetically purified CD8+ T cells from an HLA-A2.1+ PDAC-derived tumour infiltrating lymphocyte culture (TIL #1). The impact of siRNA-mediated gene knockdown on TIL-mediated killing of tumour cells was measured using a luciferase-based cytotoxicity assay (cytotoxicity setting). In order to exclude those genes whose knockdown intrinsically affects cell viability, complementary screening was performed without the addition of TIL #1 (viability setting). False positive genes were further excluded using a luciferase-independent viability screen.
The present invention is based on the dramatic impact that inhibition of SIK3 of tumour cells determines a reduction of tumour cell survival after co-culture with a cell-mediated immune response. […]
The PANC1-luc cell line was constructed as follows: PANC-1 cells were acquired from the American Type Cell Culture (ATCC). […] After lysis, luciferase assay buffer was added and immediately the luciferase intensity was measured by using the TECAN-Spark microplate reader.

A further series deals with M579 tumours. Put plainly: in vivo adoptive T cell transfer model, shCtrl or shSIK3-transduced M579 tumours in NSG mice. Set-up: species or system mouse. From the text:
FIG. 16: (A) Schematic representation of the in vivo mouse experiment. Subcutaneous (s.c.) implantation of shCtrl or shSIK3-transduced M579 cells was applied to the left and the right flank of immunodeficient (NOD scid gamma; NSG) mice, respectively. (B) Mice received intravenous (i.v.) injection of TIL209 (n=9) or PBS alone (n=7) at day 3, 10, 17 and 24. (C) Tumour growth curves showing mean+/−SEM of tumour volume (mm3) of shCtrl or shSIK3-engrafted M579 tumours in mice treated with either TIL209 or PBS. Statistical difference was calculated using unpaired one-side Mann-Whitney U-test. (D) Binding of TNF to TNFR1 (TNFR-I) on tumour cells results in downstream signalling cascade that involve caspase 8 cleavage, NF-kappaB nuclear translocation and SIK3 phosphorylation. NF-kappaB nuclear retention is sustained by its acetylation, and HDAC4 deacetylase acts as negative regulator of NF-kappaB. TNF stimulation increases the levels of pLKB1 which in turn results in increased SIK3 activation. […]
SIK3 was stably knocked down in the primary line using SIK3-specific shRNA (shSIK3) or the control non-targeting shRNA sequence (shCtrl). […] First, the shSIK3 or shCtrl transduced tumour cells were co-cultured with HLA-A2.1+−matched TIL209, and the extent of T cell-mediated killing was monitored using in vitro real-time live-cell microscopy. […]

The subject of a further series is M579 cells. Put plainly: real-time live-cell microscopy of TIL209-mediated lysis of shRNA-transduced tumour cells. The series is classed as cell-based, human. As to conditions: co-culture with HLA-A2.1+-matched TIL209, compared to shCtrl. From the text:
FIG. 15: Real-time live cell microscopy showing mean+/−SEM of TIL209-mediated lysis of M579 cells transduced with shCtrl or shSIK3 lentiviral constructs. The graph indicates the area of YOYO-1+ cells/well (um2/well).
SIK3 was stably knocked down in the primary line using SIK3-specific shRNA (shSIK3) or the control non-targeting shRNA sequence (shCtrl). The shRNA sequences targeting SIK3 are set forth in Table A2, and the transduced cell lines were produced briefly as follows: lentiviral transduction particles expressing an shRNA targeting SIK3 mRNA or control shRNA (Sigma-Aldrich) were used for transduction. 5×10^4 […] cells were seeded in a 6 well plate in DMEM 10% FCS 1% P/S. After 24 h, lentiviral particles were added using multiplicity of infection (MOI)=2. 48 h from transduction, cells were put under positive selection using 0.4 μg/ml puromycin. First, the shSIK3 or shCtrl transduced tumour cells were co-cultured with HLA-A2.1+−matched TIL209, and the extent of T cell-mediated killing was monitored using in vitro real-time live-cell microscopy. […] Second, the shSIK3 and shCtrl transduced tumour cells were subcutaneously injected into the left and the right flank, respectively, of NSG immune deficient mice (FIG. 16A), and adoptive cell transfer of TIL209 or PBS injection was applied i.v. once per week (FIG. 16B Scheme).

Where [3] appears, read: indicative IC50, Table 2A, ATP 1.0 uM.

pIC50: −log10 of the molar value. Read-outs that look alike come from different tables or passages of the source.

Chain of SIK3 (Q9Y2K2 whole entry): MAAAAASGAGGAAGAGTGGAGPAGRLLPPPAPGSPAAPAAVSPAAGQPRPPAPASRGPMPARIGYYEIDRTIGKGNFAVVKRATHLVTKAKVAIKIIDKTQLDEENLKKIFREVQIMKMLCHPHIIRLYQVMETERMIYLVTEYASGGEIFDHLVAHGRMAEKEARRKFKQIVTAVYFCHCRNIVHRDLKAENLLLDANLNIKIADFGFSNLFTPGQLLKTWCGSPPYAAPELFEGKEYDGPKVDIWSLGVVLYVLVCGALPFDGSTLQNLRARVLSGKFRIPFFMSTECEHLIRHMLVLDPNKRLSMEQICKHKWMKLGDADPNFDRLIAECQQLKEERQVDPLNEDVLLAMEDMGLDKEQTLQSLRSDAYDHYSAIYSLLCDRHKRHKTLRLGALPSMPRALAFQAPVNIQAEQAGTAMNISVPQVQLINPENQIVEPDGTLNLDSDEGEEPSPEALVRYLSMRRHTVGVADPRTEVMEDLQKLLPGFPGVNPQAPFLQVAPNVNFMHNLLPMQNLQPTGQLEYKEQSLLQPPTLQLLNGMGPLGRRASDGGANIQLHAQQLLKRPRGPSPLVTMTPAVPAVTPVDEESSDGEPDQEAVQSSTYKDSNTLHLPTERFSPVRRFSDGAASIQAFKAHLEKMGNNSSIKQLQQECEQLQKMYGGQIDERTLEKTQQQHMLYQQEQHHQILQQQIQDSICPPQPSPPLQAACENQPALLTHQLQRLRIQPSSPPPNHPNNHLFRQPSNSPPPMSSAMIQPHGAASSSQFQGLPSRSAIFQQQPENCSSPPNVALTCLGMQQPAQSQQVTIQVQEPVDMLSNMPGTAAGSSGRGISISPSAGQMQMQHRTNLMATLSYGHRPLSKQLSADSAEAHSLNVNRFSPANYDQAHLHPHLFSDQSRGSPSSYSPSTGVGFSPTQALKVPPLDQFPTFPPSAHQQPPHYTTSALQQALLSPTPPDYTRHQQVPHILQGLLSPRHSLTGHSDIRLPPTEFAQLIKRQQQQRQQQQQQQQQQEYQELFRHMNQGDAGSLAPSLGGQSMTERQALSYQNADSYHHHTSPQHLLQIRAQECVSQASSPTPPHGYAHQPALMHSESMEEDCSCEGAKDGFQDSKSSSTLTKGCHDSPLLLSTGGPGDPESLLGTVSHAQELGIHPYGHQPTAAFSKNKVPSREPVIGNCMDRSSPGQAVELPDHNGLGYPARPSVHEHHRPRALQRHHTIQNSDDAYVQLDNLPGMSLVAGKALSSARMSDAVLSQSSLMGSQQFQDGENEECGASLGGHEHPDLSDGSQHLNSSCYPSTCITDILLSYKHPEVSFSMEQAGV
Chain of ABL1 wt (P00519 whole entry): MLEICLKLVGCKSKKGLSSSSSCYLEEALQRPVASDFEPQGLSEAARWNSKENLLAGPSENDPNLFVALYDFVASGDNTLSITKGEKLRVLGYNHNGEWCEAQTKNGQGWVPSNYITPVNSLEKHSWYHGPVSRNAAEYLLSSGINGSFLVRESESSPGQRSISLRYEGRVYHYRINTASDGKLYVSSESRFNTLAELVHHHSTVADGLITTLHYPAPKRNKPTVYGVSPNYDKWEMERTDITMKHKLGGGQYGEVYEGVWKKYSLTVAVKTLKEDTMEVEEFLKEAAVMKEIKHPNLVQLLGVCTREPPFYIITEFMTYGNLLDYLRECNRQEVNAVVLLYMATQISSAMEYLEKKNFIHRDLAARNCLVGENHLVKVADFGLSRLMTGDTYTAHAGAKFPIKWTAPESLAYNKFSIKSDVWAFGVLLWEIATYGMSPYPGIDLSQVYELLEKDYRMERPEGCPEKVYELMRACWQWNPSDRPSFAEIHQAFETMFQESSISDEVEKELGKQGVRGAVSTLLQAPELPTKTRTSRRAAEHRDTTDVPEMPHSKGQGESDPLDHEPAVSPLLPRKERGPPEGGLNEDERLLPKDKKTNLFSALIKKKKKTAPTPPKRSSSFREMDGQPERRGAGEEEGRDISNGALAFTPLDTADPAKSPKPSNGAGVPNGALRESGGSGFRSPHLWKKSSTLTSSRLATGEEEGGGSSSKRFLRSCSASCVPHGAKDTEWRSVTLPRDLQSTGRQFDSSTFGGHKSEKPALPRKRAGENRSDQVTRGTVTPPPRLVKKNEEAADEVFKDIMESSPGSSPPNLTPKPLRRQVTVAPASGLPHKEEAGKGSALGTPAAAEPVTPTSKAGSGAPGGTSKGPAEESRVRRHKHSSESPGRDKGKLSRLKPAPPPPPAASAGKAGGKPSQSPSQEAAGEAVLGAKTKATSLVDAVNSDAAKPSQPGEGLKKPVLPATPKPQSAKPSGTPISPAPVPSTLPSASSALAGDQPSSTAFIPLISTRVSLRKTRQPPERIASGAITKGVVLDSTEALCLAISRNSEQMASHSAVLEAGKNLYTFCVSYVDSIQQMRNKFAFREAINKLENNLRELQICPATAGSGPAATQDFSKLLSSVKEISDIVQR

What is called pIC50 is −log10 of the IC50, conventionally taken in molar units. Consider `Cc1nc(Nc2ncc(C(=O)Nc3ccccc3S(=O)(=O)C(C)C)s2)cc(N2CCN(CCO)CC2)n1` [Compound A6, 2-((6-(4-(2-hydroxyethyl)piperazin-1-yl)-2-methylpyrimidin-4-yl)amino)-N-(2-(propane-2-sulfonyl)phenyl)thiazole-5-carboxamide], for which, in the series on M579-A2-luc tumour cells, the “tumour cell survival (RLU)” value is recorded as “remains unaffected”. For the same compound, the pIC50 is < 7.00 at SIK2 (indicative IC50, Table 2A); < 6.00 at SIK3 (setting [3]); < 6.00 at SIK1 (indicative IC50, Table 2A).
`Cc1nc(Nc2ncc(C(=O)Nc3ccccc3)s2)cc(N2CCN(CCO)CC2)n1` [Compound A11, ((6-(4-(2-hydroxyethyl)piperazin-1-yl)-2-methylpyrimidin-4-yl)amino)-N-phenylthiazole-5-carboxamide]: in the series with M579-A2-luc tumour cells, the “tumour cell survival (RLU)” value is reported as “remains unaffected”. The pIC50 at SIK2 (indicative IC50, Table 2A) is < 7.00; on SIK3 (setting [3]) it was < 6.00; at SIK1 (indicative IC50, Table 2A), < 7.00.
On to `CCOc1cccc(Cl)c1NC(=O)c1cnc(Nc2cc(N3CCN(CCO)CC3)nc(C)n2)s1` [Compound B8, N-(2-chloro-6-ethoxyphenyl)-2-((6-(4-(2-hydroxyethyl)piperazin-1-yl)-2-methylpyrimidin-4-yl)amino)thiazole-5-carboxamide], for which the “cytotoxicity of M579 A2 cells in combination with TNF compared to inhibitor alone” value with M579-A2-luc tumour cells (TNF 10 ng/mL, inhibitor between about 10 and 100 nM, FIG. 17) is reported as “fails to exhibit cytotoxicity”. For the same compound, the pIC50 on SIK2 (indicative IC50, Table 4) is < 6.00; on SIK3, < 5.30; at ABL1 wt, > 7.00; on SRC (GST-HIS-tag), > 7.00; at SIK1 (indicative IC50, Table 4), < 6.00.
For the compound `COc1cc(Nc2c(C#N)cnc3cc(OCCCN4CCN(C)CC4)c(OC)cc23)c(Cl)cc1Cl` [bosutinib, 3-Quinolinecarbonitrile, 4-[(2,4-dichloro-5-methoxyphenyl)amino]-6-methoxy-7-[3-(4-methyl-1-piperazinyl)propoxy]-, hydrate (1:1)], the “sensitivity to TILs and/or TNF-mediated tumour lysis (cytotoxicity to viability ratio in Luc-CTL assay)” value in the series on PANC-1 tumour cells [1] is given as “remarkable increase in sensitivity to TILs and/or TNF-mediated tumour lysis”.
On to HG-9-91-01, for which the “sensitivity to TILs and/or TNF-mediated tumour lysis (cytotoxicity to viability ratio in Luc-CTL assay)” value with PANC-1 tumour cells [2] is “remarkable increase in sensitivity to TILs and/or TNF-mediated tumour lysis”.
Consider “s1: SIK3 siRNA, sequence GCGCCAGGCUUUAUCUUAU, Dharmacon D-004779-01 (listed as RNA, chemistry not given here)”, for which the “cell viability of tumour cells” value with PANC-1-luc cells is recorded as “slight reduction of cell viability”.
In the case of “s2: SIK3 siRNA, sequence GAACAGCGACGAUGCUUAU, Dharmacon D-004779-05 (listed as RNA, chemistry not given here)”, in the series with PANC-1-luc cells, the “cell viability of tumour cells” value is recorded as “slight reduction of cell viability”.
As to “s3: SIK3 siRNA, sequence GCACUAACCUGCUUGGGUA, Dharmacon D-004779-06 (listed as RNA, chemistry not given here)”, the “cell viability of tumour cells” value with PANC-1-luc cells is “slight reduction of cell viability”.
Consider “shSIK3: SIK3-specific shRNA, Sigma TRCN0000037452, delivered by lentiviral transduction particles (DNA CCGGGCCAGGCTTTATCTTATCAAACTCGAGTTTGATAAGATAAAGCCTGGCTTTTTG)”, for which the tumour growth kinetic result in the series on M579 tumours (PBS-treated, shCtrl versus shSIK3) is “no difference in the tumour growth kinetic”. Also, in the series with M579 tumours (s.c. tumours, TIL209 i.v. once per week, compared to shCtrl), the tumour growth entry is “retardation of tumour growth”. For the same compound, the T cell-mediated killing result in the series on M579 cells is recorded as “increased killing efficacy”.
